Measured values from patent publication US8119599B2, “Direct application of non-toxic crosslinking reagents to resist progressive spinal degeneration and deformity” (Orthopeutics, L.P., priority 2001, dated 2012).
Where “and” joins values, the source holds several entries; their conditions need not be identical. Identical values can stand only once.

Tests used:
[1] = tested on: calf spine segments (intervertebral disc annular tissue); test: Four-point lateral bending test of spine segments after unilateral injection of crosslinking reagent; conditions: for Change in Stiffness: Compression side / Change in Stiffness: Tensionon side: neutral zone bending stiffness versus pre-treatment control; for Change in Stiffness: Compression side: treated side in compression; for Change in Stiffness: Tensionon side / Loss of Hysteresis: treated side in tension; for Loss of Hysteresis: versus pre-treatment control of same specimen
Source text: Experiments utilized 5 calf spine segments, each segment comprised of 3 lumbar intervertebral joints (motion segments), four vertebrae and the intervening 3 discs. The pedicles were cut and the posterior processes removed. The segments were randomly divided into a 0.33% by weight genipin crosslinked group, a 0.5% genipin group, a 0.66% genipin group, and a 0.66% genipin plus 0.1% proanthocyanidin group. Each group consisted of one 3 motion segment specimen. Each pre-treated spine served as its own control. Repeated testing was performed on some untreated and treated specimens to determine repeatability of the measurements. Additional appropriate concentrations and combinations of known minimally cytotoxic crosslinking reagents will be chosen based on the documented cytotoxicity of a particular tissue. […] Similar testing will be conducted on fresh-non-frozen animal tissue with appropriate sterilization procedures and antibiotics to prevent tissue degradation. Sugar solutions will be injected unilaterally into fresh intervertebral discs to induce non-enzymatic glycation crosslinks over a period of sterile incubation.
Four-point lateral bending tests were conducted using an MTS 858 materials testing system with custom fixtures while load and displacement were recorded digitally. First the specimens were cleaned of muscle and other non-load supporting tissues, and then the terminal vertebrae were potted in polyurethane to half their height in square molds. The potted spine segments are then placed on the bottom 2 rollers such that the lateral sides of the spines were positioned in a vertical plane. The bending load was actuated by 2 upper rollers in contact with the central two vertebrae of the segment. Care was taken to ensure that the pre- and post-treatment positioning of the specimens on the rollers was similar. As an attribute of 4-point bending, the central region of the test specimen, including the central disc between the 2 upper rollers, has an […] bending moment. A ramp load to 100 N (0.5 mm/s) was applied in right and left lateral bending to each spine both prior to treatment and after crosslinking treatment.
The crosslinking reagents were delivered to each of the discs in each spine specimen by 2 to 3 injections into one lateral side of the spine. Each injection was comprised of 1 cc of reagent. A 26 gauge hypodermic needle was used. The treated segments were allowed to sit in a closed container wrapped in moist paper towels for 36 hours prior to final testing. After testing, the discs were cut transversely to visually document the region of the tissue contacted by the reagents.
Resistance to lateral bending and lateral bending stability were assessed by two measures, one elastic-plastic, the other viscoelastic. The first was the neutral zone (low-load) bending stiffness evidenced by the amount of deformation from 0.1 to 100 N of deforming force. The second was the hysteresis or bending energy lost or not stored by the tissues. Less hysteresis, or a lower percentage of hysteresis compared to strain energy or the amount of bending energy stored and returned, corresponds to greater capacity to bounce back from a bend rather than remain in the deformed position. It also reflects a more elastic, spring-like response as compared to a more viscous response.

[2] = tested on: posterior intervertebral disc (lumbar intervertebral joints); test: Indentation stress relaxation of posterior annulus before and after compression/flexion fatigue cycling; parameters: species or system calf; conditions: for change in relaxation due to 6000 fatigue cycles versus controls (fatigue resistance): 72 hours soaking (G1 0.033%, G2 0.33% Genipin in PBS), 6000 cycles at 200 N, 0.25 Hz; for initial pre-fatigue relaxation less than the pre-fatigue relaxation of the controls: 72 hours soaking in PBS with Genipin (G1 0.033%, G2 0.33%), before fatigue cycling
Method: (§1) Thirty-three lumbar intervertebral joints were obtained from ten four-month-old calf spines. The intervertebral joints were arbitrarily divided into 3 groups: untreated controls-12 specimens, Genipin treatment 1 (G1)-6 specimens, and Genipin treatment 2 (G2)-13 specimens. The G1 treatment involved 72 hours of soaking the whole specimen in PBS with a 0.033% concentration of Genipin. Similarly the G2 treatment involved 72 hours of soaking whole specimens in PBS with 0.33% concentration of Genipin. 0.33% Genipin in PBS is produced by dilution of 50 ml of 10 times. PBS (Phosphate Buffered Saline) with distilled water by a factor of 10 to give 500 ml (500 gm) of PBS and mixing in 1.65 grams of genipin to produce the 0.33% (wt %, gm/gm) solution. […] Some controls were not subjected to soaking prior to fatigue testing. Others were soaked in a saline solution for 72 hours. Water mass loss experiments were conducted to establish the equivalency of outer annulus hydration between the genipin soaked and 0.9% saline soaked controls. The selection of treatments was randomized by spine and level. The vertebral ends of the specimens were then potted in polyurethane to facilitate mechanical testing. At the prescribed points in the loading regimen, indentation testing was used to find viscoelastic properties as follows. Stress relaxation data was gathered by ramp loading the 3 mm diameter hemi-spherical indenter to 10 N and subsequently holding that displacement for 60 s, while recording the resulting decrease in stress, referred to as the stress relaxation. Indentation testing was also utilized to determine elastic-plastic properties by calculating a hardness index (resistance to indentation) from ramp loading data. Prior to recording hardness measurements, the tissue is repeatedly indented 10 times (60 s/cycle, to the displacement at an initial 10 N load). This test protocol is based on two principles. First, viscoelastic effects asymptotically decrease with repeated loading. Secondly, hardness measurements are sensitive to the loading history of the tissue. However this effect becomes negligible following 10 loading cycles. In order to minimize these effects, viscoelastic data (stress relaxation) was collected from tissue that had not previously been indented. Alternately, elastic-plastic data (hardness) was collected from tissue that had been repeatedly loaded (preconditioned). In this case, repetitive indentation was intended to reduce the undesired effects of the changing viscoelastic properties, namely lack of repeatability, on hardness measurements. These testing procedures were derived from several preliminary experiments on the repeatability of the measurements with variations of loading history and location. Following initial indentation testing, the specimen was loaded repetitively in flexion-compression at 200 N for 3000 cycles at a rate of 0.25 Hz. The load was applied perpendicularly to the transverse plane, 40 mm anterior to the mid-point of the specimen in the transverse plane. A second set of indentation testing data is then collected following fatigue cycling. This procedure was followed for two fatigue loading cycles. During all testing, the specimens were wrapped in saline wetted gauze to maintain their moisture content. […] Several statistical measures were calculated to evaluate the significance of the results. […]

[3] = tested on: posterior intervertebral disc (lumbar intervertebral joints); test: Indentation hardness of posterior annulus before and after compression/flexion fatigue cycling; parameters: species or system calf; conditions: for persistence of hardness improvement under fatigue cycling: 0.33% Genipin soak, up to 3000 fatigue cycles
Method: as §1, with “measurements.” for “measurements. These testing procedures were derived from several preliminary experiments on the repeatability of the measurements with variations of loading history and location. Following initial indentation testing, the specimen was loaded repetitively in flexion-compression at 200 N for 3000 cycles at a rate of 0.25 Hz. The load was applied perpendicularly to the transverse plane, 40 mm anterior to the mid-point of the specimen in the transverse plane. A second set of indentation testing data is then collected following fatigue cycling. This procedure was followed for two fatigue loading cycles. During all testing, the specimens were wrapped in saline wetted gauze to maintain their moisture content.”

[4] = tested on: intervertebral discs (nucleus pulposus, inner and outer annulus fibrosus); test: Hydration change / fluid flux of disc regions after soaking, creep loading and resoaking; parameters: species or system calf (4 month old bovine); conditions: for Water content, Gr C2: 0.33% Genipin 2 days, then 750N creep loading 1 hour; for % increase by Genipin (flux versus control) / Genipin Flux / % increase by Genipin (fluid flow into and out of the nucleus versus control): 0.33% genipin; for Water content, Gr B2: 1 day PBS then 2 days 0.33% genipin solution; for Water content, Gr D2: 0.33% genipin 2 days, 750N creep 1 hour, PBS another day
Source text: By measuring the change in hydration of different regions of the intervertebral disc (nucleus pulposus, inner annulus, and outer annulus fibrosus) prior to and after periods of soaking, sustained compressive loading, and resoaking, the fluid flux to and from different regions can be determined. By comparing these measurements between control discs and discs treated with crosslinking reagents known to have minimal cytotoxicity, we see the effect of crosslinking treatment on fluid flux and permeability. A total of 24 calf (4 month old bovine) intervertebral discs were used for this study. Water content of three different areas of the […] tissue were tested-the nucleus pulposus, inner annulus fibrosus and outer annulus fibrosus. Hydration change was determined by weighing the specimen using a micro-balance (sensitivity: 0.1 mg). Water content (M) was calculated as: M=(Wet Weight-Dry Weight)/Wet Weight=g H2O/g Wet Weight The drying procedure consisted of putting the specimens in the oven with a controlled temperature of 90 degree C. for 24 hours. The specimens were separated into four tests: 1. Group A: Three specimens were in this group. It served as a control group. The specimens were soaked in PBS (phosphate buffered saline) for 1 day and then the hydration analysis was performed. 2. Group B1: Four specimens were in this group. In addition to the one day PBS soaking, the specimens soaked in PBS for 2 more days as a control and then the hydration analysis was performed. Group B2: Five specimens were in this group. In addition to the one day PBS soaking, the specimens were soaked in 0.33% genipin solution for 2 days and then the hydration analysis was performed. 3. In group C, a small daytime amount of constant compressive loading (creep) was simulated. C1: Three specimens were in this group. The specimens were soaked in PBS for 3 days and then […] of compression was applied by a materials testing machine for 1 hour. The disc was compressed in a 5 degree of flexion posture produced by two rollers attached to the loading ram of the materials testing machine. The hydration analysis was performed immediately after the creep loading. C2: Three specimens were in this group. The specimens were soaked in 0.33% Genipin solution for 2 days after 1 day of PBS soaking and performed identical creep loading with […] compressive load. The hydration analysis was performed immediately after the creep loading. 4. In group D, the imbibition of water following a period of compressive loading that typically occurs in the night time as a person is in a recumbent posture was simulated. D1: The specimens were soaked in PBS solution for 3 days and then 1 hour of creep loading at 750 N was applied. After the creep loading, the specimens were placed in a container in 1 PBS for one more day followed by the hydration analysis. D2: Three specimens were included and were soaked in 0.33% genipin solution for 2 days after one day of PBS soaking. A creep load of […] for one hour was then applied. The specimens were put in PBS for another day followed by the hydration analysis.

[5] = tested on: annulus fibrosus specimens from lumbar intervertebral discs; test: Radial tear resistance test of annulus fibrosus specimens; parameters: species or system bovine; conditions: soaked two days in 0.15M PBS plus 0.33% genipin
Source text: Ten annulus fibrosus circumferentially aligned specimens from bovine lumbar (T12-L5) intervertebral discs were divided into two groups and either soaked two days in a 0.15M PBS or a 0.15M PBS plus 0.33% genipin solution. A custom loading fixture attached to a uniaxial materials testing system was designed to hold an annulus specimen perpendicular to the travel of a metal cylinder placed in a pre-existing radial cut. The cylinder was then pulled radially (perpendicular to lamellae) towards the external layer. Time dependent force and displacement data was acquired simultaneously. Tearing resistance was quantified in two ways: peak force normalized by specimen thickness and tearing energy per area of tear. Differences between groups were analyzed using the Mann-Whitney non-parametric test.

[6] = compared to other more commonly used crosslinking agents; cited from earlier work
[7] = tested on: collagenous, load-supporting tissues; conditions: compared with other crosslinking reagents (Sung 1999b); cited from earlier work

COC(=O)C1=CO[C@@H](O)[C@@H]2C(CO)=CC[C@H]12 [0.33G, genipin]
Change in Stiffness: Compression side [1]: 29%
Change in Stiffness: Tensionon side [1]: 17%
Loss of Hysteresis [1]: 35%

COC(=O)C1=CO[C@@H](O)[C@@H]2C(CO)=CC[C@H]12 [0.50G, genipin]
Change in Stiffness: Compression side [1]: −12% and −22%
Change in Stiffness: Tensionon side [1]: 8% and 0.43%

COC(=O)C1=CO[C@@H](O)[C@@H]2C(CO)=CC[C@H]12 [0.66G, genipin]
Change in Stiffness: Compression side [1]: 8%
Change in Stiffness: Tensionon side [1]: 6%
Loss of Hysteresis [1]: 20%

COC(=O)C1=CO[C@@H](O)[C@@H]2C(CO)=CC[C@H]12 [G1, Genipin]
change in relaxation due to 6000 fatigue cycles versus controls (fatigue resistance) [2]: did not bring about the same improvement in fatigue resistance
initial pre-fatigue relaxation less than the pre-fatigue relaxation of the controls [2]: 26%

COC(=O)C1=CO[C@@H](O)[C@@H]2C(CO)=CC[C@H]12 [G2, Genipin]
change in relaxation due to 6000 fatigue cycles versus controls (fatigue resistance) [2]: less than a third of the change in the controls
initial pre-fatigue relaxation less than the pre-fatigue relaxation of the controls [2]: 19%
persistence of hardness improvement under fatigue cycling [3]: appears to have eroded prior to 3000 fatigue cycles
change in hardness between 3000 and 6000 cycles ([3]; G2: 0.33% Genipin, Brinnell's hardness index): −0.94
initial pre-fatigue hardness greater than that of the control group ([3]; G2: 72 hours soaking in PBS with 0.33% Genipin, before fatigue cycling): 17%

COC(=O)C1=CO[C@@H](O)[C@@H]2C(CO)=CC[C@H]12 [genipin]
reduction in viscoelastic degradation ([2]; soaking calf disc tissue in 0.33% concentration of genipin): More than a three-fold reduction
persistence of hardness improvement under fatigue cycling [3]: unable to sustain an improvement in the elastic mechanical properties (hardness) to 3000 test cycles
Water content, Gr C2 ([4]; Inner AF): 0.7394 g H2O/g Wet Weight
% increase by Genipin (flux versus control) ([4]; Inner AF): 17.3%
Genipin Flux ([4]; Inner AF): 0.1008
Water content, Gr B2 ([4]; Inner AF): 0.7629 g H2O/g Wet Weight
Water content, Gr C2 ([4]; NP): 0.817 g H2O/g Wet Weight
% increase by Genipin (fluid flow into and out of the nucleus versus control) ([4]; NP): 64%
Genipin Flux ([4]; NP): 0.04983
Water content, Gr D2 ([4]; NP): 0.8524 g H2O/g Wet Weight
% increase by Genipin (fluid flow into and out of the nucleus versus control) ([4]; NP, listed as Genipin): 63.7%
Water content, Gr B2 ([4]; NP): 0.8314 g H2O/g Wet Weight
Water content, Gr C2 ([4]; Outer AF): 0.6924 g H2O/g Wet Weight
% increase by Genipin (flux versus control) ([4]; Outer AF): 5.7%
Genipin Flux ([4]; Outer AF): 0.05294
Water content, Gr D2 ([4]; Outer AF): 0.711 g H2O/g Wet Weight
Water content, Gr B2 ([4]; Outer AF): 0.7268 g H2O/g Wet Weight
Normalized peak force (peak force normalized by specimen thickness) [5]: 42.7 N/mm
Total energy per area of tear [5]: 40.2 mJ/mm^2
cytotoxicity [6]: significantly less cytotoxicity
ultimate tensile strength and toughness [7]: greater ultimate tensile strength and toughness
